Patent US20260344668A1, “PHENYLPYRAZOLE COMPOUND, AND PLANT DISEASE CONTROL METHOD” (priority 2022, published 2026)

Assays:
[1] = test system: Phakopsora pachyrhizi; experiment: Test Example 15 Control Test Against Soybean Rust Fungus (spore germination, 96 well titer plate); format: cell-based; details: treatment concentration 1 ppm, 23° C., several hours
Procedure: (§1) The term of “non-treated well” in Test Example 4, Test Example 5, and Test Example 6 represents a well wherein a test was carried out under the same conditions as those described in each Test Example except for dispensing DMSO instead of a diluted solution with DMSO comprising the Present compound. Also, the term of “non-treated” in Test Examples 15 to 17 represents a test which was carried out under the same conditions as those described in each Test Example except for dispensing DMSO instead of a diluted solution with DMSO comprising the Present compound. Also, the term of “non-treated leaf disk” in Test Example 7 represents a leaf disk wherein a test was carried out under the same conditions as those described in the Test Example except for dispensing DMSO instead of a diluted solution with DMSO comprising the Present compound. Also, the term of “non-treated” in Test Example 10 and Test Example 11 means that a diluted solution with water of a formulation comprising the Present compound was not sprayed.
The Present compound was diluted with DMSO to obtain a diluted solution containing 150 ppm of the compound, and 1 μL of the diluted solution was dispensed into a titer plate (96 well), and thereto was then dispensed 149 μL of an aqueous suspension (1.0×10^4/mL) of spores of Phakopsora pachyrhizi to which spores of Phakopsora pachyrhizi were suspended in advance. This plate was cultured at 23° C. for several hours, and then germinated spores of Phakopsora pachyrhizi were counted. As a result, when the treatment concentration was 1 ppm, the number of germinated spores in each well comprising any one of the Present compound 1, 11, 17, 18, 20, 23, 30, 33, 34, 35, 36, 37, 38, 39, 40, 41, 42, 43, 44, 46, 47, 48, 49, 50, 51, 52, 53, 54, 55, 56, 57, 58, 62, 63, 64, 65, 66, 67, 68, 69, 70, 71, 72, 73, 74, 75, 76, 77, 78, 79, 80, 81, 82, 83, 84, 85, 86, 87, 88, 89, 90, 91, 92, 93, 94, 95, 96, 97, 98, 99, 100, 101, or 102 as the test compound was 50% or less relative to the number of germinated spores in the non-treated well.

[2] = test system: soybean rust fungus (Phakopsora pachyrhizi) having an amino acid substitution of F129L in a mitochondrial cytochrome b protein; experiment: Test Example 7 Control Test Against Soybean Rust (leaf disk); format: in vivo; details: 200 ppm, 10 μL per soybean leaf disk (cultivar: Kurosengoku), inoculated after 1 day
Procedure: as §1
A true leaf of a soybean (cultivar: Kurosengoku) was cut into a diameter of 1 cm to prepare each leaf disk. To each well of a 24 well microplate was dispensed 1 mL of an agar medium (agar concentration 1.2%), and then one of said leaf disk was placed on the agar medium in each well. To a mixture of Sorpol (registered trademark) 1200KX (0.5 μL), DMSO (4.5 μL), and xylene (5 μL) was added a DMSO solution (20 μL) comprising a test compound (10000 ppm), and the resulting mixture was mixed. The resulting mixture was diluted with ion exchange water to prepare a mixture comprising a prescribed concentration of the test compound.
The resulting mixture was sprayed into each leaf disk at a ratio of 10 μL per leaf disk. After 1 day, an aqueous suspension of spores of soybean rust fungus (Phakopsora pachyrhizi) having an amino acid substitution of F129L in a mitochondrial cytochrome b protein (1.0×10^5/mL) was inoculated by spraying on each leaf disk. After the inoculation, the microplate was placed into an artificial climate chamber (Lighting: 6 hours, Lights-out: 18 hours, Temperature: 23° C., Humidity: 60%). After 1 day, the leaf disks were air-dried until water droplets on the surfaces of the leaf disks disappeared, and the microplate was placed into the artificial climate chamber again for 12 days. Then, lesion area of soybean rust was investigated. As a result, when the prescribed concentration was 200 ppm, each lesion area of leaf disk treated with any one of the Present compound 9, 10, 11, 13, 14, 15, 16, 17, 18, 20, 32, 33, 34, 35, 36, 37, 38, 39, 40, 42, 43, 44, 47, 48, 49, 50, 51, 52, 53, 55, 56, 57, 58, 62, 63, 64, 65, 66, 67, 68, 69, 70, 71, 73, 74, 75, 76, 77, 78, 79, 80, 81, 82, 83, 84, 85, 86, 87, 88, 89, 90, 91, 92, 93, 94, 95, 96, 97, 98, 99, 100, 101, or 102 as the test compound was 30% or less relative to the lesion area of non-treated leaf disk.

[3] = test system: Phakopsora pachyrhizi; experiment: Test Example 11 Control Test Against Soybean Rust (pot test, spraying before inoculation); format: in vivo; details: 200 ppm foliage spray, soybeans (Kurosengoku), inoculated after 2 to 5 days
Procedure: as §1
A plastic pot was filled with soil, soybeans (cultivar: Kurosengoku) were seeded thereto, and cultured in a greenhouse for 10 to 14 days. The Present compound 9, 10, 11, 13, 14, 15, 17, 18, 20, 21, 22, 23, 26, 27, 33, 34, 35, 36, 37, 38, 39, 40, 41, 42, 43, 44, 46, 47, 53, 54, 55, 56, 57, 58, 66, 67, 68, 69, 70, 71, 73, 74, 75, 76, 77, 78, 79, 80, 81, 82, 83, 84, 85, 86, 87, 88, 89, 90, 91, 92, 93, 94, 95, 96, 97, 98, 99, 100, 101, or 102 formulated according to the method described in the Formulation Example 1 was mixed with water in such a way that the concentration thereof was 200 ppm, and the resulting mixture was sprayed to foliage of the above soybeans so as to adequately adhere onto the surfaces of leaves of the above soybeans. After spraying the mixture, the soybeans were air-dried. After 2 to 5 days, an aqueous suspension of spores of Phakopsora pachyrhizi was inoculated by spraying to the soybeans. After the inoculation, the soybeans were placed in a greenhouse at 23° C. in daytime and at 20° C. in nighttime under a humid condition for 1 to 2 day(s), then cultured in a greenhouse for 12 days, and then a lesion area was investigated. As a result, the lesion area in the soybeans treated with each of the above Present compound was 30% or less relative to the lesion area in the non-treated soybeans.

| Compound | number of germinated spores relative to the non-treated well [1] [%] | lesion area relative to the lesion area of non-treated leaf disk [2] [%] | lesion area relative to the lesion area in the non-treated soybeans [3] [%] |
| --- | --- | --- | --- |
| Cc1ccc(S(=O)(=O)n2ccc(-c3ccc(Cl)cc3)n2)cc1 [compound 1] | ≤ 50 |  |  |
| O=S(=O)(c1ccccc1Cl)n1ccc(-c2cc(F)c(Br)c(F)c2)n1 [compound 11] | ≤ 50 | ≤ 30 | ≤ 30 |
| O=S(=O)(c1ccccc1F)n1ccc(-c2cc(F)c(Br)c(F)c2)n1 [compound 13] |  | ≤ 30 | ≤ 30 |
| O=S(=O)(c1ccc(F)cc1)n1ccc(-c2cc(F)c(Br)c(F)c2)n1 [compound 14] |  | ≤ 30 | ≤ 30 |
| O=S(=O)(c1c(Cl)cccc1Cl)n1ccc(-c2cc(F)c(Br)c(F)c2)n1 [compound 15] |  | ≤ 30 | ≤ 30 |
| O=S(=O)(c1cc(Cl)cc(Cl)c1)n1ccc(-c2cc(F)c(Br)c(F)c2)n1 [compound 16] |  | ≤ 30 |  |
| O=S(=O)(c1cccc(Cl)c1)n1ccc(-c2cc(F)c(Br)c(F)c2)n1 [compound 18] | ≤ 50 | ≤ 30 | ≤ 30 |
| Cc1cccc(S(=O)(=O)n2ccc(-c3cc(F)c(Br)c(F)c3)n2)c1 [compound 20] | ≤ 50 | ≤ 30 | ≤ 30 |
| Cc1ccc(S(=O)(=O)n2ccc(-c3cc(F)c(Br)c(F)c3)n2)cc1 [compound 21] |  |  | ≤ 30 |
| COc1ccc(S(=O)(=O)n2ccc(-c3cc(F)c(Br)c(F)c3)n2)cc1 [compound 22] |  |  | ≤ 30 |
| COc1cccc(S(=O)(=O)n2ccc(-c3cc(F)c(Br)c(F)c3)n2)c1 [compound 23] | ≤ 50 |  | ≤ 30 |
| N#Cc1cccc(S(=O)(=O)n2ccc(-c3cc(F)c(Br)c(F)c3)n2)c1 [compound 26] |  |  | ≤ 30 |
| N#Cc1ccc(S(=O)(=O)n2ccc(-c3cc(F)c(Br)c(F)c3)n2)cc1 [compound 27] |  |  | ≤ 30 |
| O=S(=O)(c1cc2ccccc2o1)n1ccc(-c2cc(F)c(Br)c(F)c2)n1 [compound 30] | ≤ 50 |  |  |
| Cn1ccc(S(=O)(=O)n2ccc(-c3cc(F)c(Br)c(F)c3)n2)n1 [compound 34] | ≤ 50 | ≤ 30 | ≤ 30 |
| Cn1cc(S(=O)(=O)n2ccc(-c3cc(F)c(Br)c(F)c3)n2)cn1 [compound 35] | ≤ 50 | ≤ 30 | ≤ 30 |
| Cn1ccnc1S(=O)(=O)n1ccc(-c2cc(F)c(Br)c(F)c2)n1 [compound 38] | ≤ 50 | ≤ 30 | ≤ 30 |
| CN(C)c1ccc(-c2ccn(S(=O)(=O)c3cccs3)n2)cc1 [compound 46] | ≤ 50 |  | ≤ 30 |
| O=S(=O)(c1ccc(Cl)s1)n1ccc(-c2cc(F)c(Br)c(F)c2)n1 [compound 47] | ≤ 50 | ≤ 30 | ≤ 30 |
| O=S(=O)(c1cccnc1Cl)n1ccc(-c2cc(F)c(Br)c(F)c2)n1 [compound 54] | ≤ 50 |  | ≤ 30 |
| O=S(=O)(c1cccnc1)n1ccc(-c2cccc(F)c2)n1 [compound 56] | ≤ 50 | ≤ 30 | ≤ 30 |
| O=S(=O)(c1cccnc1)n1ccc(-c2ccc(F)cc2)n1 [compound 57] | ≤ 50 | ≤ 30 | ≤ 30 |
| COc1ccc(-c2ccn(S(=O)(=O)c3cccnc3)n2)cc1 [compound 58] | ≤ 50 | ≤ 30 | ≤ 30 |
| O=S(=O)(c1cccs1)n1ccc(-c2ccc3c(c2)OC(F)(F)O3)n1 [compound 63] | ≤ 50 | ≤ 30 |  |
| O=S(=O)(c1cccs1)n1ccc(-c2ccc3nonc3c2)n1 [compound 64] | ≤ 50 | ≤ 30 |  |
| O=S(=O)(c1cccs1)n1ccc(-c2ccc3ncsc3c2)n1 [compound 65] | ≤ 50 | ≤ 30 |  |
| O=S(=O)(c1cccs1)n1ccc(-c2ccc3ocnc3c2)n1 [compound 67] | ≤ 50 | ≤ 30 | ≤ 30 |
| Cc1ccc(S(=O)(=O)n2ccc(-c3cc(F)c(Br)c(F)c3)n2)o1 [compound 72] | ≤ 50 |  |  |
| O=S(=O)(c1ccco1)n1ccc(-c2cc(F)cc(F)c2)n1 [compound 73] | ≤ 50 | ≤ 30 | ≤ 30 |
